Measured values as given in patent publication US20050014806A1, “Substituted isoxazoles and their use as antibiotics” (priority 2001, published 2005).
In brackets after ≈: the same amount, converted by molar mass.

Legend:
[1] = test system: Streptococcus faecalis (BCM-010); assay: MIC by microdilution in microtiter plate, BCM-010; assay type: cell-based; settings: Enterococcus faecalis, incubation 24 h at 35° C.
Description: (§1) In order to assess the antimicrobial activity of the compounds of the present invention a method of microdilution in microtiter plate was used. The compounds were diluted in a nutritious medium and, subsequently, distributed by two-fold serial dilutions in 96 well plates. Then, plates were inoculated with a bacterial suspension. After incubation for 24 h at 35° C. the minimum inhibitory concentration (MIC) of the drug in […] was determined as the lowest concentration of compound which inhibits the growth of the bacterium. Results included in Table 1 illustrate the antimicrobial activity of some of the compounds of the present invention in comparison with thus obtained with two compounds (linezolid and eperezolid) of a known antimicrobial activity. The antimicrobial activity of the compound versus Streptococcus faecalis (BCM-010, strain designation as for SALVAT collection) Staphylococcus aureus (BCM-012, strain designation as for SALVAT collection) and Moraxella catarrhalis (BCM-015, strain designation as for SALVAT collection), respectively, is shown in the different columns.

[2] = test system: Moraxella catarrhalis (BCM-015); assay: MIC by microdilution in microtiter plate, BCM-015; assay type: cell-based; settings: incubation 24 h at 35° C.
Description: as §1

[3] = test system: Staphylococcus aureus (BCM-012); assay: MIC by microdilution in microtiter plate, BCM-012; assay type: cell-based; settings: incubation 24 h at 35° C.
Description: as §1

HT-29 = assay: cells; assay type: cell-based, human; settings: Homo sapiens, HT-29, read-out: Cell viability percentage at 100 μM HT-29
Description: (§2) Antitumoral activity of the compounds of the present invention was evaluated by determining in vitro cell growth inhibition of 2 human colon adenocarcinome cell lines. The SBR (Sulphorhodamine B) protein dye assay described by the NCI (National Cancer Institute) was used. Results of Table 2 illustrate the antiproliferative activity of some of the compounds of the present invention versus the one obtained with exisulind (sulindac sulfone).

HCT-116 = assay: cells; assay type: cell-based, human; settings: Homo sapiens, HCT-116, read-out: Cell viability percentage at 100 μM HCT-116
Description: as §2

MIC [1] [µg/mL] | MIC [2] [µg/mL] | MIC [3] [µg/mL] | SMILES | viability at 100 µM (HT-29) [%] | viability at 100 µM (HCT-116) [%]
1 (≈ 2.66 µM) | 4 (≈ 10.6 µM) | 0.5 (≈ 1.33 µM) | N#C/C=C/c1cn(-c2ccc(-c3cc(CNc4ccon4)on3)cc2F)cn1 [Example 28] | 71.2 | 64.7
– | – | – | Cc1cn(-c2ccc(-c3cc(CNc4ccon4)on3)cc2F)cn1 [Example 38] | 53.3 | 48.6
– | – | – | Cc1cc(NCc2cc(-c3ccc(-n4ccc(/C=C/C#N)c4)c(F)c3)no2)sn1 [Example 37] | < 5 | 18.9
– | – | – | N#C/C=C/c1ccn(-c2ccc(-c3cc(CNc4ccon4)on3)cc2F)c1 [Example 36] | 14.3 | 77.1
4 (≈ 11.3 µM) | – | 2 (≈ 5.63 µM) | OCc1cn(-c2ccc(-c3cc(CNc4ccon4)on3)cc2F)cn1 [Example 4] | 66.1 | 57.1
